From patent publication US20230150986A1, “ANTAGONISTS OF THE MUSCARINIC ACETYLCHOLINE RECEPTOR M4” (Vanderbilt University, priority 2019, published 2023)

Target: T1, Human M4 (Homo sapiens, UniProt P08173)
T1 construct: Human or rat M4 cDNA, along with the chimeric G protein Gq,5, were transfected into Chinese hamster ovary (CHO-K1) cells; expressed in transfected cells; host or cells: CHO-K1 (M4/Gqi5/CHO)
T1 sequence (P08173 1-479): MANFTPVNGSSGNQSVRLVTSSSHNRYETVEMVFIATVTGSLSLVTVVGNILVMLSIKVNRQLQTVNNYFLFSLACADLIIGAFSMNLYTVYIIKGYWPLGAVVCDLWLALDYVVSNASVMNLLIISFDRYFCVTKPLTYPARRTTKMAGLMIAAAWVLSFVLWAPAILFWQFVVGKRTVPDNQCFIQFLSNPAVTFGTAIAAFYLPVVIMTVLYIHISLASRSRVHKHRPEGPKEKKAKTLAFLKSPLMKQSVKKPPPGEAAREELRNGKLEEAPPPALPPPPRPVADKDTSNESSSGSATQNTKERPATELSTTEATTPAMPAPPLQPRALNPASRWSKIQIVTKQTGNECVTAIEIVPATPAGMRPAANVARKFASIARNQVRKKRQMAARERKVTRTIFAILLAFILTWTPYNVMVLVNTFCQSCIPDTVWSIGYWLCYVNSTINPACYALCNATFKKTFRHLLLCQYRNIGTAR
Assay: mAChR M4 cell-based functional assay (calcium flux, decrease of EC80 acetylcholine response)
Settings: for Human M4 Emin: % ACh maximum at 30 μM; for IC50: CHO-K1 cells with human M4 and Gqi5, EC80 acetylcholine
Protocol: Human or rat M4 cDNA, along with the chimeric G protein Gq,5, were transfected into Chinese hamster ovary (CHO-K1) cells purchased from the American Type Culture Collection using Lipofectamine2000. M4/Gqi5/CHO cells were grown in Ham's F-12 medium containing 10% heat-inactivated fetal bovine serum (FBS), 20 mM HEPES, 500 μg/mL G^418 sulfate, and 200 μg/mL Hygromycin B.
For high throughput measurement of agonist-evoked increases in intracellular calcium, CHO-K1 cells stably expressing muscarinic receptors were plated in growth medium lacking G418 and hygromycin at 15,000 cells/20 μL/well in Greiner 384-well black-walled, tissue culture (TC)-treated, clear-bottom plates (VWR). Cells were incubated overnight at 37° C. and 5% CO2. The next day, cells were washed using an ELX 405 (BioTek) with assay buffer; the final volume was then aspirated to 20 μL. Next, 20 μL of a 2.3 μM stock of Fluo-4/acetoxymethyl ester (Invitrogen, Carlsbad, Calif.), prepared as a 2.3 mM stock in DMSO and mixed in a 1:1 ratio with 10% (w/v) Pluronic F-127 and diluted in assay buffer, was added to the wells and the cell plates were incubated for 50 min at 37° C. and 5% CO2. Dye was removed by washing with the ELX 405 and the final volume was aspirated to 20 μL. Compound master plates were formatted in a 10 point concentration-response curve (CRC) format (1:3 dilutions) in 100% DMSO with a starting concentration of 10 or 1 mM using a BRAVO liquid handler (Agilent). Test compound CRCs were then transferred to daughter plates (240 nL) using the Echo acoustic plate reformatter (Labcyte, Sunnyvale, Calif.) and then diluted into assay buffer (40 μL) to a 2× stock using a Thermo Fisher Combi (Thermo Fisher Scientific, Waltham, Mass.).
Calcium flux was measured using the Functional Drug Screening System (FDSS) 6000 or 7000 (Hamamatsu Corporation, Tokyo, Japan) as an increase in the fluorescent static ratio. Compounds were applied to cells (20 μL, 2×) using the automated system of the FDSS at 2 seconds into the protocol and the data were collected at 1 Hz. At 143 s, 10 μL of an EC20 concentration of the muscarinic receptor agonist acetylcholine was added (5×), followed by the addition of […] of an EC80 concentration of acetylcholine at the 268 s time point (5×). Agonist activity was analyzed as a concentration-dependent increase in calcium mobilization upon compound addition. Positive allosteric modulator activity was analyzed as a concentration-dependent increase in the EC2o acetylcholine response. Antagonist activity was analyzed as a concentration-dependent decrease in the EC80 acetylcholine response; for the purposes of the tables herein, an IC50 (inhibitory concentration 50) was calculated as a concentration-dependent decrease of the response elicited by an EC80 concentration of acetylcholine. Concentration-response curves were generated using a four-parameter logistical equation in XLFit curve fitting software (IDBS, Bridgewater, N.J.) for Excel (Microsoft, Redmond, Wash.) or Prism (GraphPad Software, Inc., San Diego, Calif.) or the Dotmatics software platform (Dotmatics, Bishop's Stortford, UK).
Compounds were synthesized as described above. Activity (IC50 and Emin) was determined in the mAChR M4 cell-based functional assay as described above and the data are shown in Table 2.

Row | Human M4 Emin | IC50 | SMILES
1 | 2% | 57.1 nM | COc1cccc(CN2C[C@H]3C[C@H](Nc4ccc(-c5cc(F)cc(F)c5F)nn4)C[C@H]3C2)n1 [Compound 17, (3aR,5s,6aS)-2-((6-methoxypyridin-2-yl)methyl)-N-(6-(2,3,5-trifluorophenyl)pyridazin-3-yl)octahydrocyclopenta[c]pyrrol-5-amine]
2 | 4% | 24.3 nM | Cc1ccc(CN2C[C@H]3C[C@H](Nc4ccc(-c5cc(F)cc(F)c5F)nn4)C[C@H]3C2)nc1 [Compound 18, (3aR,5s,6aS)-2-((5-methylpyridin-2-yl)methyl)-N-(6-(2,3,5-trifluorophenyl)pyridazin-3-yl)octahydrocyclopenta[c]pyrrol-5-amine]
3 | 3% | 133 nM | Fc1cc(F)c(F)c(-c2ccc(N[C@H]3C[C@@H]4CN(Cc5cc(Cl)ccn5)C[C@@H]4C3)nn2)c1 [Compound 19, (3aR,5s,6aS)-2-((4-chloropyridin-2-yl)methyl)-N-(6-(2,3,5-trifluorophenyl)pyridazin-3-yl)octahydrocyclopenta[c]pyrrol-5-amine]
4 | 5% | 111 nM | Fc1cc(F)c(F)c(-c2ccc(N[C@H]3C[C@@H]4CN(Cc5cccc(Cl)n5)C[C@@H]4C3)nn2)c1 [Compound 20, (3aR,5s,6aS)-2-((6-chloropyridin-2-yl)methyl)-N-(6-(2,3,5-trifluorophenyl)pyridazin-3-yl)octahydrocyclopenta[c]pyrrol-5-amine]
5 | 4% | 36.1 nM | Fc1ccc(CN2C[C@H]3C[C@H](Nc4ccc(-c5cc(F)cc(F)c5F)nn4)C[C@H]3C2)nc1 [Compound 21, (3aR,5s,6aS)-2-((5-fluoropyridin-2-yl)methyl)-N-(6-(2,3,5-trifluorophenyl)pyridazin-3-yl)octahydrocyclopenta[c]pyrrol-5-amine]
6 | 4% | 79.2 nM | Fc1cc(F)c(F)c(-c2ccc(N[C@H]3C[C@@H]4CN(Cc5cccc(F)n5)C[C@@H]4C3)nn2)c1 [Compound 22, (3aR,5s,6aS)-2-((6-fluoropyridin-2-yl)methyl)-N-(6-(2,3,5-trifluorophenyl)pyridazin-3-yl)octahydrocyclopenta[c]pyrrol-5-amine]
7 | 5% | 42.4 nM | Cc1cccnc1CN1C[C@H]2C[C@H](Nc3ccc(-c4cc(F)cc(F)c4F)nn3)C[C@H]2C1 [Compound 23, (3aR,5s,6aS)-2-((3-methylpyridin-2-yl)methyl)-N-(6-(2,3,5-trifluorophenyl)pyridazin-3-yl)octahydrocyclopenta[c]pyrrol-5-amine]
8 | 4% | 0.69 nM | Fc1cc(F)c(F)c(-c2ccc(N[C@H]3C[C@@H]4CN(C[C@@H]5COCCO5)C[C@@H]4C3)nn2)c1 [Compound 28, (3aR,5s,6aS)-2-(((R)-1,4-dioxan-2-yl)methyl)-N-(6-(2,3,5-trifluorophenyl)pyridazin-3-yl)octahydrocyclopenta[c]pyrrol-5-amine]
9 | 3% | 48.3 nM | Fc1cc(F)c(F)c(-c2ccc(N[C@H]3C[C@@H]4CN(C[C@H]5COCCO5)C[C@@H]4C3)nn2)c1 [Compound 29, (3aR,5s,6aS)-2-(((S)-1,4-dioxan-2-yl)methyl)-N-(6-(2,3,5-trifluorophenyl)pyridazin-3-yl)octahydrocyclopenta[c]pyrrol-5-amine]
10 | 2% | 63.2 nM | Fc1cc(F)c(F)c(-c2ccc(N[C@H]3C[C@@H]4CN(C[C@H]5CCOC5)C[C@@H]4C3)nn2)c1 [Compound 30, (3aR,5s,6aS)-2-(((R)-tetrahydrofuran-3-yl)methyl)-N-(6-(2,3,5-trifluorophenyl)pyridazin-3-yl)octahydrocyclopenta[c]pyrrol-5-amine]
11 | 3% | 1.47 nM | Fc1cc(F)c(F)c(-c2ccc(N[C@H]3C[C@@H]4CN(C[C@H]5CC6CCC5O6)C[C@@H]4C3)nn2)c1 (stereo partly drawn) [Compound 31, (3aR,5s,6aS)-2-(((2R)-7-oxabicyclo[2.2.1]heptan-2-yl)methyl)-N-(6-(2,3,5-trifluorophenyl)pyridazin-3-yl)octahydrocyclopenta[c]pyrrol-5-amine]
12 | 3% | 0.48 nM | Fc1cc(F)c(F)c(-c2ccc(N[C@H]3C[C@@H]4CN(C[C@@H]5CC6CCC5O6)C[C@@H]4C3)nn2)c1 (stereo partly drawn) [Compound 32, (3aR,5s,6aS)-2-(((2S)-7-oxabicyclo[2.2.1]heptan-2-yl)methyl)-N-(6-(2,3,5-trifluorophenyl)pyridazin-3-yl)octahydrocyclopenta[c]pyrrol-5-amine]
13 | 3% | 39.6 nM | [2H]C([2H])(N1C[C@H]2C[C@H](Nc3ccc(-c4cc(F)cc(F)c4F)nn3)C[C@H]2C1)C1(CC)CCOCC1 [Compound 33, (3aR,5s,6aS)-2-((4-ethyltetrahydro-2H-pyran-4-yl)methyl-d2)-N-(6-(2,3,5-trifluorophenyl)pyridazin-3-yl)octahydrocyclopenta[c]pyrrol-5-amine]
14 | 2% | 38.7 nM | Fc1cc(F)c(F)c(-c2ccc(N[C@H]3C[C@@H]4CN(C5CCCCC5)C[C@@H]4C3)nn2)c1 [Compound 34, (3aR,5s,6aS)-2-cyclohexyl-N-(6-(2,3,5-trifluorophenyl)pyridazin-3-yl)octahydrocyclopenta[c]pyrrol-5-amine]
15 | 3% | 798 nM | Fc1cc(F)c(F)c(-c2ccc(N[C@H]3C[C@@H]4CN(C5CC6(COC6)C5)C[C@@H]4C3)nn2)c1 [Compound 35, (3aR,5s,6aS)-2-(2-oxaspiro[3.3]heptan-6-yl)-N-(6-(2,3,5-trifluorophenyl)pyridazin-3-yl)octahydrocyclopenta[c]pyrrol-5-amine]
16 | 3% | 2.22 nM | Fc1cc(F)c(F)c(-c2ccc(N[C@H]3C[C@@H]4CN(Cc5cc6n(n5)CCOC6)C[C@@H]4C3)nn2)c1 [Compound 36, (3aR,5s,6aS)-2-((6,7-dihydro-4H-pyrazolo[5,1-c][1,4]oxazin-2-yl)methyl)-N-(6-(2,3,5-trifluorophenyl)pyridazin-3-yl)octahydrocyclopenta[c]pyrrol-5-amine]
17 | 11% | 1010 nM | Fc1cc(F)c(F)c(-c2ccc(N[C@H]3C[C@@H]4CN(Cc5ccc6c(c5)OC(F)(F)O6)C[C@@H]4C3)nn2)c1 [Compound 37, (3aR,5s,6aS)-2-((2,2-difluorobenzo[d][1,3]dioxol-5-yl)methyl)-N-(6-(2,3,5-trifluorophenyl)pyridazin-3-yl)octahydrocyclopenta[c]pyrrol-5-amine]
18 | 16% | 5210 nM | Fc1cc(F)c(F)c(-c2ccc(N[C@H]3C[C@@H]4CN(Cc5ccnnc5)C[C@@H]4C3)nn2)c1 [Compound 38, (3aR,5s,6aS)-2-(pyridazin-4-ylmethyl)-N-(6-(2,3,5-trifluorophenyl)pyridazin-3-yl)octahydrocyclopenta[c]pyrrol-5-amine]
